Activity and inhibition data for 16 molecules are collected here from ChEMBL document CHEMBL6109033, “Design and synthesis of novel antioxidants derived from chalcones and their protective effects on cardiomyocytes by activating Nrf2/HO-1 pathway” (Bioorg Med Chem Lett, 2025).

In experiment [1] the test system is H9c2. Briefly: Antioxidant activity against H2O2-induced oxidative stress in rat H9c2 cells assessed as cell viability at 5 uM pretreated with compounds for 18 hrs followed by H2O2 stimulation for 24 hrs by MTT assay. Particulars: time 42.0 hrs. It is filed as functional, cell-based. Background: Tetrazolium dyes change colour on reduction, which living cells bring about.

For experiment [2], the system named is H9c2. Briefly: Cytoprotective activity against H2O2-induced oxidative stress in rat H9c2 cells assessed as inhibition of cell viability pretreated with compounds for 18 hrs followed by H2O2 stimulation for 24 hrs by MTT assay. The experiment is classed as functional, cell-based. As to conditions: dose 0.625-5 µM, time 42.0 hrs.
In experiment [3] the test system is H9c2. Briefly: Cytoprotective activity against H2O2-induced rat H9c2 cells assessed as reversal of colony formation inhibition by colony formation assay. As to conditions: dose 1.25-5 µM. It is filed as functional, cell-based.
Experiment [4] relates to H9c2. Briefly: Cytoprotective activity against high glucose-induced oxidative stress in rat H9c2 cells assessed as inhibition of cell viability pretreated with compounds for 18 hrs followed by H2O2 stimulation for 24 hrs by MTT assay. Particulars: dose 0.625-5 µM, time 42.0 hrs. The experiment is classed as functional, cell-based.
Experiment [5] has as its system H9c2. The experiment is described as follows: Inhibition of H2O2-induced oxidative stress in rat H9c2 cells assessed as reduction intracellular ROS level pretreated with compounds for 18 hrs followed by H2O2 stimulation for 2 hrs by DCFH-DA based fluorescence microscopic analysis. It is filed as functional, cell-based. As to conditions: dose 1.25-5 µM, time 20.0 hrs.

Experiment [6] relates to H9c2. Briefly: […] of H2O2-induced oxidative stress in rat H9c2 cells assessed as decrease in MDA level pretreated with compounds for 18 hrs followed by H2O2 stimulation for 2 hrs by MDA assay. As to conditions: dose 1.25-5 µM, time 20.0 hrs. The experiment is classed as functional, cell-based.
Experiment [7] relates to H9c2. The experiment is described as follows: Downregulation of Nrf2 expression in rat H9c2 cells transfected with Nrf2 siRNA at 0.625 uM pretreated with compound for 18 hrs followed by H2O2 stimulation for 24 hrs by Western blot analysis. The experiment is classed as functional, cell-based. As to conditions: time 42.0 hrs. In general terms: A western blot detects proteins with antibodies after separation by electrophoresis.

Experiment [8] deals with H9c2. The experiment is described as follows: Upregulation of HO-1 protein expression in rat H9c2 cells incubated for 18 hrs by Western blot analysis. It is filed as functional, cell-based. As to conditions: dose 0.625-2.5 µM.
Experiment [9] concerns H9c2. The experiment is described as follows: Activation of Nrf2 nuclear translocation in rat H9c2 cells assessed as increase in accumulation of Nrf2 in nucleus at 10 uM incubated for 6 hrs by DAPI staining based fluorescence microscopic analysis. It is filed as cell-based. Particulars: filed as activator.

Active and inactive are the calls of the source. No cut-off for these calls is given here.

On to `COc1ccccc1[C@H]1CN(C)[C@]2(C(=O)c3cccc4cccc2c34)[C@H]1C(=O)c1ccc(O)c(O)c1`, for which the outcome in the experiment on H9c2 [1] was Active. As to `COc1ccc(OC)c([C@H]2CN(C)C3(C(=O)Nc4ccc(C)cc43)[C@H]2C(=O)c2ccc(O)c(O)c2)c1` (some centres undefined), the outcome in the experiment with H9c2 [1] was Active. `COc1ccc(OC)c([C@H]2CN(C)[C@]3(C(=O)c4cccc5cccc3c45)[C@H]2C(=O)c2ccc(O)c(O)c2)c1`: the result in the experiment with H9c2 [1] was Active. The same measure, in the same setting: under `COc1ccc(OC)c([C@H]2CN(C)C3(C(=O)Nc4ccc(Cl)cc43)[C@H]2C(=O)c2ccc(O)c(O)c2)c1` (some centres undefined) stands “Active”; under `COc1ccccc1[C@H]1CN(C)C2(C(=O)Nc3ccccc32)[C@H]1C(=O)c1ccc(O)c(O)c1` (some centres undefined), “Active”. On to `COc1ccccc1[C@H]1CN(C)C2(C(=O)Nc3ccc(Cl)cc32)[C@H]1C(=O)c1ccc(O)c(O)c1` (some centres undefined), for which, in the experiment with H9c2 [1], the outcome was Active. Still for that read-out and setting: for `COc1ccccc1/C=C/C(=O)c1ccc(O)c(O)c1` the value was “Active”; for `COc1ccccc1[C@H]1CN(C)C2(C(=O)Nc3ccc(Br)cc32)[C@H]1C(=O)c1ccc(O)c(O)c1` (some centres undefined), “Active”. On to `COc1ccccc1[C@H]1CN(C)C2(C(=O)Nc3ccc(F)cc32)[C@H]1C(=O)c1ccc(O)c(O)c1` (some centres undefined), for which, in the experiment with H9c2 [1], the result was Active.

For the molecule `COc1ccc(OC)c([C@H]2CN(C)C3(C(=O)Nc4ccc(OC)cc43)[C@H]2C(=O)c2ccc(O)c(O)c2)c1` (some centres undefined), the result with H9c2 [1] was Active. On to `COc1ccc(OC)c([C@H]2CN(C)C3(C(=O)Nc4ccc(Br)cc43)[C@H]2C(=O)c2ccc(O)c(O)c2)c1` (some centres undefined), for which the outcome in the experiment with H9c2 [1] was Active. The same measure, in the same setting: for `COc1ccc(OC)c(/C=C/C(=O)c2ccc(O)c(O)c2)c1` the value was “Active”. Same read-out and setting: under `COc1ccc(OC)c([C@H]2CN(C)C3(C(=O)Nc4ccc(F)cc43)[C@H]2C(=O)c2ccc(O)c(O)c2)c1` (some centres undefined) stands “Active”. Take `COc1ccc2c(c1)C1(C(=O)N2)[C@@H](C(=O)c2ccc(O)c(O)c2)[C@@H](c2ccccc2OC)CN1C` (some centres undefined): the Activity entry in the experiment with H9c2 [2], in the experiment on H9c2 [3], in the experiment with H9c2 [4] and with H9c2 [6] was “Dose-dependent-effect” each time. Further, the inhibition result with H9c2 [5] is “Dose-dependent-effect”. The result in the experiment on H9c2 [1] was Active. Regarding `COc1ccc(OC)c([C@H]2CN(C)C3(C(=O)Nc4ccccc43)[C@H]2C(=O)c2ccc(O)c(O)c2)c1` (some centres undefined), the result in the experiment on H9c2 [7], in the experiment on H9c2 [9] and with H9c2 [1] was Active. In addition, the Activity result with H9c2 [2], in the experiment on H9c2 [8], in the experiment on H9c2 [3], with H9c2 [4] and in the experiment on H9c2 [6] was “Dose-dependent-effect” each time. Moreover, the inhibition result in the experiment with H9c2 [5] is “Dose-dependent-effect”. As for `COc1ccccc1[C@H]1CN(C)C2(C(=O)Nc3ccc(C)cc32)[C@H]1C(=O)c1ccc(O)c(O)c1` (some centres undefined), in the experiment on H9c2 [1], the result was Active.
